In ChEMBL document CHEMBL4507318, “Data for DCP probe BAY-985” (2021):

Assays:
[1] = biological target: Tyrosine-protein kinase ABL1 (Homo sapiens) (UniProt P00519)
[2] = biological target: Activin receptor type-2B (Homo sapiens) (UniProt Q13705)
[3] = biological target: RAC-gamma serine/threonine-protein kinase (Homo sapiens) (UniProt Q9Y243)
[4] = biological target: ALK tyrosine kinase receptor (Homo sapiens) (UniProt Q9UM73)
[5] = biological target: Casein kinase I isoform gamma-3 (Homo sapiens) (UniProt Q9Y6M4)
Casein kinase I isoform gamma-3 (Homo sapiens), sequence (Q9Y6M4 whole entry, looked up, canonical isoform): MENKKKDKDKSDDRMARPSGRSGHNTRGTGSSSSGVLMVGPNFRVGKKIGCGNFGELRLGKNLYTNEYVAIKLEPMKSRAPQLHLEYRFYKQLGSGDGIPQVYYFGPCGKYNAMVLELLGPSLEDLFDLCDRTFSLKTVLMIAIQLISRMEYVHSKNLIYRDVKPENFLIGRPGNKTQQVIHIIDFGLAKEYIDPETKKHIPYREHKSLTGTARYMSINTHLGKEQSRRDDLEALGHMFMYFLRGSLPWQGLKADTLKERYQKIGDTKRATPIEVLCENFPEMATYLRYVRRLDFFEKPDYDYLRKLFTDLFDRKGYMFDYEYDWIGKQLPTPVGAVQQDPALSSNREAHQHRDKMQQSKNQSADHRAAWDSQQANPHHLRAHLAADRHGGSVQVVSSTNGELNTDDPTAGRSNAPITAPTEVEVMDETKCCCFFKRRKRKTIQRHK

[6] = biological target: Death-associated protein kinase 2 (Homo sapiens) (UniProt Q9UIK4)
Death-associated protein kinase 2 (Homo sapiens), sequence (Q9UIK4 whole entry, looked up): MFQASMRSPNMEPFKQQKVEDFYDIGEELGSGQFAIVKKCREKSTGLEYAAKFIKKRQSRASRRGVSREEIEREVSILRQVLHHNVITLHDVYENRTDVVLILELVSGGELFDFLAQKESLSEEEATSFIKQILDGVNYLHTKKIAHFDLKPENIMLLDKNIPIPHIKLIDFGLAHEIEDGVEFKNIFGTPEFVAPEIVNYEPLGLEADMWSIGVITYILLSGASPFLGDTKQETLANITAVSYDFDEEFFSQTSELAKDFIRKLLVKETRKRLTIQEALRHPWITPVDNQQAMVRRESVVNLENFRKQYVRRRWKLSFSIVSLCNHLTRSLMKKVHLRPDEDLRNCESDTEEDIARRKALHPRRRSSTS

[7] = biological target: Mitogen-activated protein kinase kinase kinase 12 (Homo sapiens) (UniProt Q12852)
Mitogen-activated protein kinase kinase kinase 12 (Homo sapiens), sequence (Q12852 whole entry): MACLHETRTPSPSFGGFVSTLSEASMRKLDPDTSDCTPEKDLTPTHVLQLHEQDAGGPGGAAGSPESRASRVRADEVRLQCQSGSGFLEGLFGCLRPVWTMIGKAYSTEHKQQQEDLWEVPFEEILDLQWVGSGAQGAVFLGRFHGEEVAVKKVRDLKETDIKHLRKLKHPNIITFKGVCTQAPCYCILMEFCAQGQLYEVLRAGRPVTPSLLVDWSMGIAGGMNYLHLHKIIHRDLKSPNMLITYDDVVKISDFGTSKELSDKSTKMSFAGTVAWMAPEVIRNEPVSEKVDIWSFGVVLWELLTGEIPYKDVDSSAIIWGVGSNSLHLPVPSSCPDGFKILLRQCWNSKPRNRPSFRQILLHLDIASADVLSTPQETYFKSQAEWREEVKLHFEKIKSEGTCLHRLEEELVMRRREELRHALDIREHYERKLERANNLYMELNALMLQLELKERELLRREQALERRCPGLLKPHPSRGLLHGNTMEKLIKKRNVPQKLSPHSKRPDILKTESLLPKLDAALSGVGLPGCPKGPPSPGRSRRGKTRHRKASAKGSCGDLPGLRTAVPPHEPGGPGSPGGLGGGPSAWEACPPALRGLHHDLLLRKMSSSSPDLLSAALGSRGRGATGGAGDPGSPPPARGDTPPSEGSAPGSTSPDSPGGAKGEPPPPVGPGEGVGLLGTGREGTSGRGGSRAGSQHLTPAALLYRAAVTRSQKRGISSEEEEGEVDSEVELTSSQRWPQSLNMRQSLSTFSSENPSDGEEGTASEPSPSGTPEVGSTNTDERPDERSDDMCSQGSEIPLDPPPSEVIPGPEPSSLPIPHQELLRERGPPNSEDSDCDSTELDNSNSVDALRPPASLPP

[8] = biological target: Mitogen-activated protein kinase 1 (Homo sapiens) (UniProt P28482)
Mitogen-activated protein kinase 1 (Homo sapiens), sequence (P28482 whole entry): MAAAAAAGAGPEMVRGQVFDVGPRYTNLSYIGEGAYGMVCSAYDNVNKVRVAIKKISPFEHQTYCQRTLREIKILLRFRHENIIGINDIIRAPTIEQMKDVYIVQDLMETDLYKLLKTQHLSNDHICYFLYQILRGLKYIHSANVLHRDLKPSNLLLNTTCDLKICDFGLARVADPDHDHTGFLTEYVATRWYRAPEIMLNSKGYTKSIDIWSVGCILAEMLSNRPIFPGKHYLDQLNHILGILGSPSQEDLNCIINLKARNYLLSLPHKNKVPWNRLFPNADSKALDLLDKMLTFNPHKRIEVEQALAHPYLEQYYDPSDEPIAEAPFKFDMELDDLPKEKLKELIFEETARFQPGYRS

[9] = system: Receptor-type tyrosine-protein kinase FLT3 (Homo sapiens), P36888 [D835H]
[10] = system: Receptor-type tyrosine-protein kinase FLT3 (Homo sapiens), P36888 [D835V]
[11] = biological target: G protein-coupled receptor kinase 3 (Homo sapiens) (UniProt P35626)
[12] = biological target: Tyrosine-protein kinase JAK2 (Homo sapiens) (UniProt O60674)
[13] = biological target: Tyrosine-protein kinase JAK3 (Homo sapiens) (UniProt P52333)
[14] = system: Mast/stem cell growth factor receptor Kit (Homo sapiens), P10721 [V559D,V654A]
[15] = biological target: Mast/stem cell growth factor receptor Kit (Homo sapiens) (UniProt P10721)
[16] = biological target: Mitogen-activated protein kinase kinase kinase kinase 2 (Homo sapiens) (UniProt Q12851)
[17] = biological target: MAP kinase-activated protein kinase 2 (Homo sapiens) (UniProt P49137)
[18] = system: Hepatocyte growth factor receptor (Homo sapiens), P08581 [Y1235D]
[19] = biological target: Serine/threonine-protein kinase 4 (Homo sapiens) (UniProt Q13043)
[20] = biological target: Myosin light chain kinase 2, skeletal/cardiac muscle (Homo sapiens) (UniProt Q9H1R3)
[21] = biological target: Myosin-IIIb (Homo sapiens) (UniProt Q8WXR4)
Myosin-IIIb (Homo sapiens), sequence (Q8WXR4 whole entry): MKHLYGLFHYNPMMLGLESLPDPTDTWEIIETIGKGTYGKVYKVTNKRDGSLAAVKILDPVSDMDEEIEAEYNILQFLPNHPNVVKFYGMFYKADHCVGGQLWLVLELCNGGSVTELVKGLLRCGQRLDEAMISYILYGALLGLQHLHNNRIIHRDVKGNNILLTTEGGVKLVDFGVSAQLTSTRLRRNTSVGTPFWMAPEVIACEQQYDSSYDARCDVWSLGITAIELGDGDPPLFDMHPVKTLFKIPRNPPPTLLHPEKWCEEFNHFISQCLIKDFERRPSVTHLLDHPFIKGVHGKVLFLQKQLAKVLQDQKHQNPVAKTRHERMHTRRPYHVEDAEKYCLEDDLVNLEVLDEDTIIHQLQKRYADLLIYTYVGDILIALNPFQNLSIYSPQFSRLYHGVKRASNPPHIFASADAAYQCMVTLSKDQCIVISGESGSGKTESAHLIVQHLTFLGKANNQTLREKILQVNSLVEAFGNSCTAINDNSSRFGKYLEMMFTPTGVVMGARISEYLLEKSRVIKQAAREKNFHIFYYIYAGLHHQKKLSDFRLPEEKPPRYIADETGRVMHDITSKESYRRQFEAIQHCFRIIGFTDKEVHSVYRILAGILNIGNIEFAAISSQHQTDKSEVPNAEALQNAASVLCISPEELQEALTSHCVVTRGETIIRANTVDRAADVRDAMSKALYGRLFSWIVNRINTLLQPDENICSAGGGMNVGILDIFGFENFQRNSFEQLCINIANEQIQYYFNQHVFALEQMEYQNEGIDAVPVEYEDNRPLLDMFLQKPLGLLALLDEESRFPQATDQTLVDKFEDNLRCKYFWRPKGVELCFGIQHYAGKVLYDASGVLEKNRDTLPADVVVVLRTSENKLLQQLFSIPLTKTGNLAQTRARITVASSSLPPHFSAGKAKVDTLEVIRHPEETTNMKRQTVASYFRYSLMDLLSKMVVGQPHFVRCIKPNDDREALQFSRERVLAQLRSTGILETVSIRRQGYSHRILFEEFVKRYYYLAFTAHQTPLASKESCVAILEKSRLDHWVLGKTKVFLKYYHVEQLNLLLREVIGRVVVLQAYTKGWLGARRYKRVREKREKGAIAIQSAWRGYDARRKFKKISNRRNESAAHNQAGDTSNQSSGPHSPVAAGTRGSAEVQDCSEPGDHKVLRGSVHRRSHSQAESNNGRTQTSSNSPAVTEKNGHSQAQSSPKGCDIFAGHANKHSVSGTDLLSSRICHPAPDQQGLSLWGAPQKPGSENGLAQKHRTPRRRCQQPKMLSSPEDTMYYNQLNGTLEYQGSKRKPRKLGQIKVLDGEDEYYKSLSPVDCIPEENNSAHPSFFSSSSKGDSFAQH

[22] = biological target: Serine/threonine-protein kinase Nek10 (Homo sapiens) (UniProt Q6ZWH5)
[23] = biological target: Mitogen-activated protein kinase 13 (Homo sapiens) (UniProt O15264)
Mitogen-activated protein kinase 13 (Homo sapiens), sequence (O15264 whole entry): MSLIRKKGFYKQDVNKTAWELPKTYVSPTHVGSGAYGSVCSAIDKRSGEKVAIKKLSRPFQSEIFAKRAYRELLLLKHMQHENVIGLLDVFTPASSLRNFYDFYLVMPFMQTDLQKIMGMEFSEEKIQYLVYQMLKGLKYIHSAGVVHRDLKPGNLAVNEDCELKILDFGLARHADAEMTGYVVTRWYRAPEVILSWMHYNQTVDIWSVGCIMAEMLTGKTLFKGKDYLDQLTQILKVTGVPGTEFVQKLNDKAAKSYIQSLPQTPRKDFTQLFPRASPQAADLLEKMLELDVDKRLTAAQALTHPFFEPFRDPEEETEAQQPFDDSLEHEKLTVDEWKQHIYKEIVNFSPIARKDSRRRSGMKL

[24] = biological target: Serine/threonine-protein kinase PAK 6 (Homo sapiens) (UniProt Q9NQU5)
[25] = biological target: Platelet-derived growth factor receptor alpha (Homo sapiens) (UniProt P16234)
[26] = biological target: Platelet-derived growth factor receptor beta (Homo sapiens) (UniProt P09619)
[27] = system: Phosphatidylinositol 4,5-bisphosphate 3-kinase catalytic subunit alpha isoform (Homo sapiens), P42336 [M1043I]
[28] = biological target: Serine/threonine-protein kinase pim-3 (Homo sapiens) (UniProt Q86V86)
[29] = biological target: Protein kinase C delta type (Homo sapiens) (UniProt Q05655)
[30] = biological target: Serine/threonine-protein kinase D1 (Homo sapiens) (UniProt Q15139)
[31] = biological target: Proto-oncogene tyrosine-protein kinase ROS (Homo sapiens) (UniProt P08922)
[32] = biological target: SRSF protein kinase 1 (Homo sapiens) (UniProt Q96SB4)
SRSF protein kinase 1 (Homo sapiens), sequence (Q96SB4 whole entry): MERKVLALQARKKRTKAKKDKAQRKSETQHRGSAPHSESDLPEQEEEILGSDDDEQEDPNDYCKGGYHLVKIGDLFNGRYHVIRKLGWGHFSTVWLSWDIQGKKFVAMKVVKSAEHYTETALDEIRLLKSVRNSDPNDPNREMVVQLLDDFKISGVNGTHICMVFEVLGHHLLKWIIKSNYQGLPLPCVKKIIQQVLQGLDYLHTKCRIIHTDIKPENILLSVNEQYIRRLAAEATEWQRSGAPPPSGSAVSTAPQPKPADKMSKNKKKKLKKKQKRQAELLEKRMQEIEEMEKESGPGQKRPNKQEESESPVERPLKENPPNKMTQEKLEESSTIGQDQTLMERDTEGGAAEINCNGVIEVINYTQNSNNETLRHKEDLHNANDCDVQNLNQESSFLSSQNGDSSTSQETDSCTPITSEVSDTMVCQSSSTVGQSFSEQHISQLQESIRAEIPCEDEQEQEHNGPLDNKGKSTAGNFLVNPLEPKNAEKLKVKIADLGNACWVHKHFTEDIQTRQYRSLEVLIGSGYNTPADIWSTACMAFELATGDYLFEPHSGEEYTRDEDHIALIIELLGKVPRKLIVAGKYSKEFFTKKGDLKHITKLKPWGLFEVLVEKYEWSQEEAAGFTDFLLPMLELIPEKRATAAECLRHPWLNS

[33] = biological target: TRAF2 and NCK-interacting protein kinase (Homo sapiens) (UniProt Q9UKE5)
[34] = biological target: NT-3 growth factor receptor (Homo sapiens) (UniProt Q16288)
[35] = biological target: Testis-specific serine/threonine-protein kinase 3 (Homo sapiens) (UniProt Q96PN8)
[36] = biological target: Dual specificity protein kinase TTK (Homo sapiens) (UniProt P33981)
[37] = biological target: Serine/threonine-protein kinase ULK1 (Homo sapiens) (UniProt O75385)
[38] = biological target: Serine/threonine-protein kinase ULK3 (Homo sapiens) (UniProt Q6PHR2)
[39] = biological target: Serine/threonine-protein kinase 25 (Homo sapiens) (UniProt O00506)
[40] = biological target: Mitogen-activated protein kinase kinase kinase 20 (Homo sapiens) (UniProt Q9NYL2)
[41] = biological target: 5-hydroxytryptamine receptor 2C (Homo sapiens) (UniProt P28335); details: Compound concentration 10.0 uM
[42] = biological target: Mu-type opioid receptor (Homo sapiens) (UniProt P35372); details: Compound concentration 10.0 uM
[43] = biological target: Alpha-1B adrenergic receptor (Homo sapiens) (UniProt P35368); details: Compound concentration 10.0 uM
Alpha-1B adrenergic receptor (Homo sapiens), sequence (P35368 whole entry): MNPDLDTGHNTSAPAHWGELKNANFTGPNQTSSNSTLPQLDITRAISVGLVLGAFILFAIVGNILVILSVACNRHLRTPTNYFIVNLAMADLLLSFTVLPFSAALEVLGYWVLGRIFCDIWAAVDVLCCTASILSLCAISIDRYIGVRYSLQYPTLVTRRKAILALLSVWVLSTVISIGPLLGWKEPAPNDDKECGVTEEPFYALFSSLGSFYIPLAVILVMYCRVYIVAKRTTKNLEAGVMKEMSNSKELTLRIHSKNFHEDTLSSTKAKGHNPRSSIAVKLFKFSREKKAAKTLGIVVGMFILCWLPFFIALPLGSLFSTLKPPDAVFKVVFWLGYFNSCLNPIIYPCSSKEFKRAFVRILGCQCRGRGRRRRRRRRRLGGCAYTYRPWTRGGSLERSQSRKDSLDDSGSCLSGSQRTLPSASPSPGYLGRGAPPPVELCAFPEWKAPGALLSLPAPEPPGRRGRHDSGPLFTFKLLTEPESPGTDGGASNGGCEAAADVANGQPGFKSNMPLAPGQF

[44] = biological target: Muscarinic acetylcholine receptor M1 (Homo sapiens) (UniProt P11229); details: Compound concentration 10.0 uM
[45] = biological target: Muscarinic acetylcholine receptor M4 (Homo sapiens) (UniProt P08173); details: Compound concentration 10.0 uM
[46] = Compound concentration 1000.0 nM
[47] = Compound concentration 100.0 nM

SMILES: CN(C)c1ncnc(-c2ccc3nc(Nc4cc(CN5CCN(C(=O)CC(F)(F)F)CC5)ccn4)[nH]c3c2)c1Cl [BAY-440]
- residual activity [1, 46]: 26%
- residual activity [2, 46]: 100%
- residual activity [3, 46]: 96%
- residual activity [4, 46]: 75%
- residual activity [5, 46]: 100%
- residual activity [6, 46]: 100%
- residual activity [7, 46]: 64%
- residual activity [8, 46]: 100%
- residual activity [9, 46]: 42%
- residual activity [10, 46]: 7%
- residual activity [11, 46]: 78%
- residual activity [12, 46]: 44%
- residual activity [13, 46]: 71%
- residual activity [14, 46]: 100%
- residual activity [15, 46]: 96%
- residual activity [16, 46]: 69%
- residual activity [17, 46]: 100%
- residual activity [18, 46]: 68%
- residual activity [19, 46]: 95%
- residual activity [20, 46]: 100%
- residual activity [21, 46]: 100%
- residual activity [22, 46]: 72%
- residual activity [23, 46]: 100%
- residual activity [24, 46]: 100%
- residual activity [25, 46]: 61%
- residual activity [26, 46]: 100%
- residual activity [27, 46]: 56%
- residual activity [28, 46]: 100%
- residual activity [29, 46]: 100%
- residual activity [30, 46]: 100%
- residual activity [31, 46]: 100%
- residual activity [32, 46]: 47%
- residual activity [33, 46]: 53%
- residual activity [34, 46]: 61%
- residual activity [35, 46]: 62%
- residual activity [36, 46]: 100%
- residual activity [37, 46]: 75%
- residual activity [38, 46]: 61%
- residual activity [39, 46]: 100%
- residual activity [40, 46]: 65%
- inhibition [41]: 0.02%
- inhibition [42]: 14.1%
- inhibition [43]: 4.51%
- inhibition [44]: 32.1%
- inhibition [45]: 4.83%

SMILES: C[C@H](c1ccnc(Nc2nc3ccc(-c4cc(N(C)C)ncn4)cc3[nH]2)c1)N1CCN(C(=O)CC(F)(F)F)CC1 [BAY-985]
- residual activity [1, 47]: 89%
- residual activity [2, 47]: 81%
- residual activity [3, 47]: 100%
- residual activity [4, 47]: 97%
- residual activity [5, 47]: 100%
- residual activity [6, 47]: 74%
- residual activity [7, 47]: 100%
- residual activity [8, 47]: 78%
- residual activity [9, 47]: 71%
- residual activity [10, 47]: 32%
- residual activity [11, 47]: 100%
- residual activity [12, 47]: 100%
- residual activity [13, 47]: 83%
- residual activity [14, 47]: 100%
- residual activity [15, 47]: 100%
- residual activity [16, 47]: 100%
- residual activity [17, 47]: 100%
- residual activity [18, 47]: 100%
- residual activity [19, 47]: 100%
- residual activity [20, 47]: 92%
- residual activity [21, 47]: 100%
- residual activity [22, 47]: 100%
- residual activity [23, 47]: 80%
- residual activity [24, 47]: 100%
- residual activity [25, 47]: 99%
- residual activity [26, 47]: 82%
- residual activity [27, 47]: 84%
- residual activity [28, 47]: 87%
- residual activity [29, 47]: 100%
- residual activity [30, 47]: 100%
- residual activity [31, 47]: 100%
- residual activity [32, 47]: 85%
- residual activity [33, 47]: 96%
- residual activity [34, 47]: 100%
- residual activity [35, 47]: 74%
- residual activity [36, 47]: 82%
- residual activity [37, 47]: 95%
- residual activity [38, 47]: 90%
- residual activity [39, 47]: 100%
- residual activity [40, 47]: 98%
- inhibition [41]: 11.4%
- inhibition [42]: 26%
- inhibition [43]: 2.95%
- inhibition [44]: 15.1%
- inhibition [45]: 24.7%
